# Assay results as given in patent publication US8710068B2, “Method of treating cancer using a survivin inhibitor” (The Trustees Of The University Of Pennsylvania, priority 2009, dated 2014).
# Assays:
# [1] = system: PARP; test: Western blot for PARP cleavage (caspase activation) and Survivin levels, HeLa; assay type: cell-based, human; conditions: 12 hours
# Description: (§1) FIG. 12 illustrates S12 induction of caspase activation in HeLa cells. (A) HeLa cells were incubated with DMSO (control), S12, Taxol, nocodazole (Noco), or etoposide (Etop) for 12 hours. The cell lysates were analyzed by Western blot using the anti-PARP antibody (top panel), the anti-α-tubulin antibody (middle panel), or the anti-Survivin antibody (bottom panel). (B) S12 causes cell death in a cell cycle dependent manner. HeLa cells, either unsynchronized or synchronized by thymidine treatment were incubated either with S12 or DMSO. Cell death was quantitated by trypan blue exclusion assay.
# (§2) We examined whether S12 treatment leads to apoptosis. HeLa cells were incubated with S12 at the concentration of 50 μg/ml or with DMSO alone for 12 hours. To compare the effect with that of other therapeutic agents, HeLa cells were also treated with Taxol, nocodazole, or etoposide, respectively. The cell lysates were collected and subjected to Western blot analysis using an anti-PARP antibody. […] We also re-probed the blot with an anti-Survivin antibody. […] These observations, combined with the earlier findings, indicate that the Survivin-targeting molecule S12 can block mitosis and cause apoptosis.
# [2] = as above; assay type: cell-based, human; conditions: 50 μg/ml, 12 hours, anti-Survivin Western blot
# Description: as §1, §2
# [3] = system: HCT116(p53+/+) cells; test: MTT viability assay, HCT116(p53+/+); assay type: cell-based; conditions: 48 hours
# Description: FIG. 4 illustrates the effects of S12 on proliferation of p53-positive and p53-negative cancer cells. (A) HCT116(p53+/+) or HCT116(p53−/−) cells were treated with DMSO or S12 at the indicated concentrations for 48 hours. The percentage of viable cells was evaluated by MTT assay.
# Thus, inhibition of cell proliferation by S12 is independent of p53 status.
# [4] = system: HeLa cells; test: BrdU incorporation DNA synthesis assay (FACS), HeLa; assay type: cell-based, human; conditions: 4 hours treatment then one-hour BrdU
# Description: BrdU-labeled cells were analyzed by FACS. The percentage of BrdU-positive cells is indicated.
# HeLa cells were treated with S12, aphidicolin, or DMSO (control) for 4 hours. BrdU was then added to the medium followed by an additional incubation of 1 hour. The amount of BrdU was examined by staining with anti-BrdU antibody and FACS analysis. The percentage of BrdU-positive cells is shown.
# To establish the specificity of the biological activities of the Survivin targeting we examined whether the compounds affect DNA synthesis. HeLa cells were treated with Aphidicolin, S2 or DMSO for 4 hours, followed by one-hour incubation with BrdU. The cells were then collected, fixed and stained with FITC-labeled anti-BrdU antibody.
smiles,measurement,setting,value
O=C(CC1(O)C(=O)Nc2ccc(Br)cc21)c1ccc2c(c1)OCO2 (centres unmarked) [S12],cleavage of PARP (caspase activation),"[1]; 50 μg/ml, Western blot",detected
same,apoptosis induction compared with other agents,[1]; at the concentrations employed,"more potent in inducing apoptosis than Taxol, nocodazole, or etoposide"
same,overall Survivin levels,[2],did not significantly affect
same,reduction of cell viability,[3],equally effective at reducing cell viability
same,DNA synthesis (BrdU incorporation),[4],did not block DNA synthesis
